Values quoted from earlier work as cited in patent publication US20260115234A1, “PRODUCTION & SECRETION OF AUXIN-LIKE MOLECULES IN BACTERIA” (SNIPR Biome ApS, priority 2023, published 2026).
≈ marks a conversion by molar mass, not a printed value.

Test system: HIV replication in infected H9 lymphocytes
Details: not given

Question: For `O=C(O)c1c[nH]c2ccccc12` [ICA, indole-3-carboxylic acid], which “IC50 inhibition of HIV replication” value is on record?
Answer: 16.4 µg/mL

Test system: MCF-7 human breast cancer cells
Details: not given

Question: For `O=C(O)c1c[nH]c2ccccc12` [ICA, indole-3-carboxylic acid], which EC50 cytotoxicity is on record?
Answer: 12.9 µg/mL (≈ 80 µM)

Test system: RFP reporter in strain TG1
Details: relative fluorescence of plasmids in strain TG1 grown in LB media to saturation

Question: Which “Measured Strength (Anderson Score)” value does the source give for “BBa_J23110: Anderson Promoter Collection promoter, Seq ID No: 15 (DNA TTTACGGCTAGCTCAGTCCTAGGTACAATGCTAGC; expressed or natural sequence)” here?
Answer: 0.33

Question: With “BBa_J23107: Anderson Promoter Collection promoter, Seq ID No: 12 (DNA TTTACGGCTAGCTCAGCCCTAGGTATTATGCTAGC; expressed or natural sequence)” as the compound, how does the “Measured Strength (Anderson Score)” value read?
Answer: 0.36

Question: With “BBa_J23106: Anderson Promoter Collection promoter, Seq ID No: 11 (DNA TTTACGGCTAGCTCAGTCCTAGGTATAGTGCTAGC; expressed or natural sequence)” as the compound, how does the “Measured Strength (Anderson Score)” value read?
Answer: 0.47

Question: For “BBa_J23108: Anderson Promoter Collection promoter, Seq ID No: 13 (DNA CTGACAGCTAGCTCAGTCCTAGGTATAATGCTAGC; expressed or natural sequence)”, which “Measured Strength (Anderson Score)” value is on record?
Answer: 0.51

Question: With “BBa_J23113: Anderson Promoter Collection promoter, Seq ID No: 18 (DNA CTGATGGCTAGCTCAGTCCTAGGGATTATGCTAGC; expressed or natural sequence)” as the compound, how does the “Measured Strength (Anderson Score)” value read?
Answer: 0.01

Question: Which “Measured Strength (Anderson Score)” value does the source give for “BBa_J23109: Anderson Promoter Collection promoter, Seq ID No: 14 (DNA TTTACAGCTAGCTCAGTCCTAGGGACTGTGCTAGC; expressed or natural sequence)” here?
Answer: 0.04

Question: For “BBa_J23112: Anderson Promoter Collection promoter, Seq ID No: 17 (DNA CTGATAGCTAGCTCAGTCCTAGGGATTATGCTAGC; expressed or natural sequence)”, which “Measured Strength (Anderson Score)” value is on record?
Answer: 0

Question: Which “Measured Strength (Anderson Score)” value does the source give for “BBa_J23101: Anderson Promoter Collection promoter, Seq ID No: 6 (DNA TTTACAGCTAGCTCAGTCCTAGGTATTATGCTAGC; expressed or natural sequence)” here?
Answer: 0.7

Question: Which “Measured Strength (Anderson Score)” value does the source give for “BBa_J23118: Anderson Promoter Collection promoter, Seq ID No: 23 (DNA TTGACGGCTAGCTCAGTCCTAGGTATTGTGCTAGC; expressed or natural sequence)” here?
Answer: 0.56

Question: With “BBa_J23115: Anderson Promoter Collection promoter, Seq ID No: 20 (DNA TTTATAGCTAGCTCAGCCCTTGGTACAATGCTAGC; expressed or natural sequence)” as the compound, how does the “Measured Strength (Anderson Score)” value read?
Answer: 0.15

Question: For “BBa_J23104: Anderson Promoter Collection promoter, Seq ID No: 9 (DNA TTGACAGCTAGCTCAGTCCTAGGTATTGTGCTAGC; expressed or natural sequence)”, which “Measured Strength (Anderson Score)” value is on record?
Answer: 0.72

Question: For “BBa_J23116: Anderson Promoter Collection promoter, Seq ID No: 21 (DNA TTGACAGCTAGCTCAGTCCTAGGGACTATGCTAGC; expressed or natural sequence)”, which “Measured Strength (Anderson Score)” value is on record?
Answer: 0.16

Question: For “BBa_J23117: Anderson Promoter Collection promoter, Seq ID No: 22 (DNA TTGACAGCTAGCTCAGTCCTAGGGATTGTGCTAGC; expressed or natural sequence)”, which “Measured Strength (Anderson Score)” value is on record?
Answer: 0.06

Question: Which “Measured Strength (Anderson Score)” value does the source give for “BBa_J23114: Anderson Promoter Collection promoter, Seq ID No: 19 (DNA TTTATGGCTAGCTCAGTCCTAGGTACAATGCTAGC; expressed or natural sequence)” here?
Answer: 0.1

Question: With “BBa_J23100: Anderson Promoter Collection constitutive promoter, Seq ID No: 5 (DNA TTGACGGCTAGCTCAGTCCTAGGTACAGTGCTAGC; expressed or natural sequence)” as the compound, how does the “Measured Strength (Anderson Score)” value read?
Answer: 1

Question: Which “Measured Strength (Anderson Score)” value does the source give for “BBa_J23102: Anderson Promoter Collection promoter, Seq ID No: 7 (DNA TTGACAGCTAGCTCAGTCCTAGGTACTGTGCTAGC; expressed or natural sequence)” here?
Answer: 0.86

Question: Which “Measured Strength (Anderson Score)” value does the source give for “BBa_J23111: Anderson Promoter Collection promoter, Seq ID No: 16 (DNA TTGACGGCTAGCTCAGTCCTAGGTATAGTGCTAGC; expressed or natural sequence)” here?
Answer: 0.58

Question: For “BBa_J23105: Anderson Promoter Collection promoter, Seq ID No: 10 (DNA TTTACGGCTAGCTCAGTCCTAGGTACTATGCTAGC; expressed or natural sequence)”, which “Measured Strength (Anderson Score)” value is on record?
Answer: 0.24

Question: For “BBa_J23103: Anderson Promoter Collection promoter, Seq ID No: 8 (DNA CTGATAGCTAGCTCAGTCCTAGGGATTATGCTAGC; expressed or natural sequence)”, which “Measured Strength (Anderson Score)” value is on record?
Answer: 0.01

Test system: A549 human lung cancer cells
Details: not given

Question: For `O=C(O)c1c[nH]c2ccccc12` [ICA, indole-3-carboxylic acid], which EC50 cytotoxicity is on record?
Answer: 4.6 µg/mL (≈ 28.5 µM)
